In patent publication US8927771B2, “Pharmaceutically acceptable cocrystals of N-[2-(7-methoxyl-1-naphtyl)ethyl]acetamide and methods of their preparation” (Zentiva k.s., priority 2011, dated 2015):

Assays:
[1] = suspensions in organic solvents (alcohols, ketones, esters, alkanes, aromatic hydrocarbons), 30° C., one week, Raman spectroscopy
Method: Samples of the agomelatine citric acid cocrystal were maturated as suspensions in a library of organic solvents including alcohols, ketones, esters, alkanes and aromatic hydrocarbons at a temperature of 30° C. for one week.

[2] = 90° C. in a glass capillary for 7 hours, X-ray powder diffraction
Method: A sample of the agomelatine citric acid cocrystal was heated to 90° C. in a glass capillary for 7 hours.

[3] = DVS, range of 20-80% RH
Excerpt: A sample of the agomelatine citric acid cocrystal was subjected to DVS analysis ([…] Vapor Sorption). The sample was placed on a microbalance in a controlled humidity chamber and subjected to two cycles of increasing humidity (red and green lines) and two cycles of decreasing humidity (blue and purple lines) as shown in FIG. 4.

[4] = slurried in water, Raman spectra
Method: A sample of the agomelatine citric acid cocrystal was slurried in water and the solid analysed by Raman spectroscopy at 20 minute intervals.

[5] = BCS classification system; cited from earlier work

Structure (SMILES) | stability of the crystalline phase in suspension [1] | crystalline phase after heating [2] | hygroscopicity [3] | change in mass ([3]; two cycles of increasing and two of decreasing humidity) | state of the solid in water slurry after 20 minutes ([4]; after 20 minutes) | state of the solid in water slurry after 40 minutes ([4]; after 40 minutes) | BCS solubility class [5]
COc1ccc2cccc(CCNC(C)=O)c2c1.O=C(O)CC(O)(CC(=O)O)C(=O)O [agomelatine citric acid cocrystal, N-[2-(7-methoxy-1-naphthyl)ethyl]acetamide Citric Acid Cocrystal] | generally stable | pure crystalline phase consistent with the agomelatine citric acid cocrystal | not particularly hygroscopic | less than 0.2% | near to complete dissolution of the citric acid | no further changes in the spectrum were observed | 
COc1ccc2cccc(CCNC(C)=O)c2c1 [N-[2-(7-Methoxy-1-naphthyl)ethyl]acetamide] |  |  |  |  |  |  | high solubility drug
